Experiments:
MDA-MB-231 [1] = experiment: Cell growth inhibition assay, MDA-MB-231; format: cell-based; conditions: Homo sapiens; MDA-MB-231, breast carcinoma; 72 h viability assay, CellTiterGlo; mean of 3 ± SEM; read-out: IC50 (inhibition of cellular proliferation)
Procedure: Cells were plated at a density of between 500 to 5000 cells per well for adherent cell lines depending on doubling time, and 15,000 cells per well for lymphoblastic leukemia cell lines, in a 96-well plate in 200 μl of growth media. Plates were incubated overnight at 37 °C before adding the inhibitors. Inhibitors were serially diluted from the stock solutions in complete medium and added to the cells. Incubation in the presence of inhibitors was continued for […]. Cell viability was assessed by the AlamarBlue (Invitrogen) or CellTiterBlue/Glo (Promega) method according to manufacturer’s instructions. The curve fits and IC50 values were generated in PRISM (GraphPad, San Diego, CA).

SW480 = experiment: Cell cycle analysis (G2/M arrest, PI staining, flow cytometry), SW480; format: cell-based, human
Procedure: Fig. 2 Antimitotic activity of WEHI-7326: cancer cell lines and effects on tubulin polymerization. a Dose-dependent antimitotic activity of WEHI-7326, nocodazol and taxol in tumor cell lines SW480 (colorectal) and MDA-MB-231 (breast). Data are presented as percentage of cells in G2/M after overnight incubation with increasing concentrations of inhibitors and PI staining followed by flow cytometry analysis. Mean average of 3 independent experiments ±SEM. b EC50 values (nM) for G2/M arrest on SW480 and MDA-MB-231 cell lines, given as mean average of 3 independent experiments ±SEM. c Western blot analysis of mitotic arrest in SW480 and MDA-MB-231 cells treated with EC50 concentrations of WEHI-7326 or Paclitaxel as marked by expression of phosho-S10 Histone H3 (p-HH3 S10), at different timepoints post treatment. Expression of β-actin provided as loading control. d Cell cycle analysis of LIM1899 cells 72 h post treatment with increasing concentrations of WEHI-7326 as measured by PI staining for DNA content followed by flow cytometry analysis. Sub-G1 represents apoptotic fractions and >4 N cell fractions of mitotic slippage. e Immunofluorescence confocal microscopy of tubulin polymerization in SW480 cells treated by various agents. Cells were incubated for 24 h with control (0.1% DMSO), nocodazole (1 μM), paclitaxel (1 μM), myoseverin B (1 μM) or WEHI-7326 (1 μM). Cells were fixed and stained with β-tubulin antibody (green) and DAPI (DNA; blue) and phalloidin (actin, red). Shown are single confocal sections and enlarged areas (3x) to highlight changes in microtubule network; scale bar = 20 μm. Representative images from 2 independent experiments. f Cellular tubulin polymerization assay in cells: SW480 cells were incubated overnight with paclitaxel, myoseverin B or WEHI-7326, then processed to detect fractions of polymerized (P) and soluble (S) tubulin by western blot analysis. Representative blot of 3 independent experiments. g Tubulin polymerization was assessed in vitro over time using a fluorescence-based tubulin polymerization assay (BK011P). Tubulin was incubated with control (DMSO), paclitaxel (3 μM), nocodazole (15 μM) and WEHI-7326 at indicated concentrations (in DMSO). Polymerization was measured by excitation at 360 nm and emission at 420 nm. Representative graph of 3 independent experiments performed in duplicates. […]
(§1) Cells in log growth were supplemented with fresh medium with either vehicle (control) or compound at the stated final concentrations. […] After 1 h incubation at room temperature in the dark, cells were analyzed on a FACScan (Becton and Dickinson) in CellQuest. The percentage of cells in each phase of the cell cycle was determined using ModFit software (Verity, http://www.vsh.com). Early and late apoptotic responses elicited by WEHI-7326 were assessed using Dead Cell Apoptosis Kit (ThermoFisher Scientific) with Annexin V FITC and PI following manufacturer’s instructions. Cells were incubated 24 h with 6-point, 4-fold titration of WEHI-7326, washed twice with cold 1X PBS, resuspended in 1X Annexin Binding Buffer, incubated with FITC Annexin V and PI for 15 mins at RT in the dark and subsequently analyzed by flow cytometry.

MDA-MB-231 [2] = experiment: Cell cycle analysis (G2/M arrest, PI staining, flow cytometry), MDA-MB-231; format: cell-based; conditions: Homo sapiens, MDA-MB-231, read-out: EC50 (G2/M arrest)
Procedure: Fig. 2 Antimitotic activity of WEHI-7326: cancer cell lines and effects on tubulin polymerization. a Dose-dependent antimitotic activity of WEHI-7326, nocodazol and taxol in tumor cell lines SW480 (colorectal) and MDA-MB-231 (breast). Data are presented as percentage of cells in G2/M after overnight incubation with increasing concentrations of inhibitors and PI staining followed by flow cytometry analysis. Mean average of 3 independent experiments ±SEM. b EC50 values (nM) for G2/M arrest on SW480 and MDA-MB-231 cell lines, given as mean average of 3 independent experiments ±SEM. c Western blot analysis of mitotic arrest in SW480 and MDA-MB-231 cells treated with EC50 concentrations of WEHI-7326 or Paclitaxel as marked by expression of phosho-S10 Histone H3 (p-HH3 S10), at different timepoints post treatment. Expression of β-actin provided as loading control. d Cell cycle analysis of LIM1899 cells 72 h post treatment with increasing concentrations of WEHI-7326 as measured by PI staining for DNA content followed by flow cytometry analysis. Sub-G1 represents apoptotic fractions and >4 N cell fractions of mitotic slippage. e Immunofluorescence confocal microscopy of tubulin polymerization in SW480 cells treated by various agents. […] Representative blot of 3 independent experiments. g Tubulin polymerization was assessed in vitro over time using a fluorescence-based tubulin polymerization assay (BK011P). […] Polymerization was measured by excitation at 360 nm and emission at 420 nm. […]
as §1, with “Cells were incubated 24 h with 6-point, 4-fold titration of WEHI-7326, washed twice with cold 1X PBS, resuspended in 1X Annexin Binding Buffer, incubated with FITC Annexin V and PI for 15 mins at RT in the dark and subsequently analyzed by flow cytometry.” left out

[3] = tested on: U87MG-(Δ2–7) (glioblastoma) xenograft; experiment: U87MG-(Δ2–7) tumor xenograft in nude mice; format: in vivo, BALB/c nude mice; conditions: U87MG-(Δ2–7) xenograft, i.p. three times weekly
Procedure: Tumor cell lines LIM2537, U87MGΔ2–7EGFR or H1437 were collected by trypsinization, counted and injected at 5 × 10^6 cells/ site subcutaneously on both flanks of BALB/c nude mice. Treatment with vehicle control or WEHI-7326 at given dose was initiated after 5 days. Drug or vehicle (100 μl) was injected intraperitoneally three times weekly. Control group and treatment group consisted of 8 mice each. Tumors were measured twice weekly with calipers. Tumor volumes were estimated using the modified ellipsoid formula V = 1/2 (length × width^2). The experiments were terminated when tumors in the control group started ulcerating or exceeded 17 mm in length, in line with the LICR/DoS Animal Ethics Committee guidelines (11/05 A).

Structure (SMILES): COc1ccc(CNc2nc(NCc3ccc(CN)cc3)nc(NN3CC(=O)NC3=O)n2)cc1 [WEHI-7326]
- IC50 (MDA-MB-231 [1]): 0.0244 ± 0.0031 µM
- EC50 (SW480; Homo sapiens, SW480, read-out: EC50 (G2/M arrest)): 0.098 ± 0.01 µM
- G2/M cell cycle arrest (SW480; SW480): strong G2/M cell cycle arrest
- EC50 (MDA-MB-231 [2]): 0.019 ± 0.0022 µM
- Tumor growth [3]: effective in reducing tumor growth

From publication PMC7955127, “Preclinical small molecule WEHI-7326 overcomes drug resistance and elicits response in patient-derived xenograft models of human treatment-refractory tumors” (Cell Death & Disease, 2021)
